We go through 7 compounds from patent US20220242846A1, “ISOINDOLINONE COMPOUNDS” (Monte Rosa Therapeutics AG, priority 2019, published 2022).

The target of assay [1] is T1, Full length wild-type cereblon CRBN (Homo sapiens, UniProt Q96SW2).
T1 construct: Full length wild-type cereblon CRBN (80.0 nM, 10 μL) was incubated in assay buffer
As to the kind of experiment: Fluorescence polarization (FP) assay indicating cereblon binding. The conditions noted are these: CRBN 80.0 nM, fluorescent probe 5 nM, FP measured after 12 hours; read-out: rFP IC50. The gist of the method: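 Full-length wild-type human CRBN (80.0 nM) preincubated 30 min at room temperature with compound (12-point curve, 300-0.937 or 3000-9.3 nM) in HEPES pH 8.0, NaCl, TCEP, Tween 20. Thalidomide-based Cy5-type probe then added at 5 nM final; FP read after 12 h (ex 590, em 675 nm), normalized to DMSO, IC50 derived.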

A further assay concerns the target T2, IKZF3 (Homo sapiens, UniProt Q9UKT9).
T2 construct: MM1S cells were purchased from ATCC (cat. Number CRL-2974); endogenous in cells; host or cells: MM1S (ATCC CRL-2974)
As to the kind of experiment: Selectivity determination by Western Blot assay in MM1S cells: IKZF3. It counts as cell-based. The arrangement: key: A represents a no degradation observed at 30 μM; B represents trace degradation at 30 μM (below 20%); C represents weak degradation at 30 μM (below 50%); D represents degradation at 30 μM (>90%); E represents degradation at 3 μM (>90%); F represents degradation at 0.3 μM (>90%). The conditions noted are these: MM1S cells, 0.3, 3 and 30 μM, 6 hours. On the procedure: (§1) CK1alpha/Ikaros/Aiolos/ZFP91 Selectivity determination by Western Blot Assay
(§2) MM1S cells were purchased from ATCC (cat. Number CRL-2974), sub-cultured in 90% RPMI 1640 with 10% FBS, supplemented with 1× P/S and incubated at 37° C., 5% CO2. Compounds were stored as 10 mM DMSO stock. For the assay, MM1S cells (3 million cells/well) were plated in 6-well plates and incubated over night. Cells were treated with respective compounds using a serial dilution: 0.3 μM, 3 μM and 30 μM as well as a vehicle only (DMSO) control for 6 hours. Media with suspension cells was subsequently transferred to 15 mL conical tubes, wells rinsed twice with ice-cold PBS and merged with cell suspension in respective 15 mL conical tube. Cells were spinned down, supernatant aspirated, pellets resuspended in ice-cold PBS and transferred to microtubes. Cells were spinned down, supernatant aspirated and pellets resuspended in 120 μL RIPA lysis buffer supplemented with protease and phosphatase inhibitors. Cell lysates were incubated on ice for 20 minutes followed by centrifugation at >20,000×g for 5 mM. Supernatants were transferred to fresh microtubes and stored at −80° C. Total protein concentration was determined using a BCA assay with a BSA standard curve and concentration of all samples was adjusted to 1 mg/mL. 25 μL 4× LDS sample buffer supplemented with 100 mM DTT was added to 75 μL sample. Samples were centrifuged (8,000×g, 1 min) and incubated at 95° C. for […] followed by another centrifugation step (8,000×g, 1 mM). 20 μL of each sample was loaded on a 4-12% gel alongside a protein molecular weight marker. Gels were run in the presence of MOPS buffer at 80 Volts for […], followed by 120 Volts for 1.5 h and proteins subsequently transferred onto nitrocellulose membranes at 20 Volts for 7 mM using an iBlot2 Gel Transfer Device. Membranes were then cut horizontally into two pieces, covering 80-50 kDa and 50-25 kDa. Blocking the membranes was performed by gently shaking in 5% (w/v) skim milk in TSB-T for 1 hr at room temperature. All primary antibodies were used at a 1/1000 in 5% (w/v) BSA dissolved in TBST and incubated with membranes over night at 4° C. After three washes with 1× TBST for 5 mM, HRP-coupled secondary antibodies diluted in 5% (w/v) BSA/TBST (Goat Anti-Rb IgG, dil. 1/10,000; Goat Anti-Mouse IgG, dil. 1/5000) were added for 1 hr at room temperature. After three washes with 1× TBST (5 minutes each), membranes were incubated with ECL reagent for 1 mM at room temperature. Chemiluminescence signals were then detected using a LAS-4000 system with default settings and signals quantified using Image Studio Lite software (version 5.2). Membrane parts previously incubated with antibody against CK1alpha were stripped off antibodies by incubating with stripping buffer for 30 minutes followed by three washed with TBST (5 mM each), blocking with 5% (w/v) skim milk for 1 hr, and incubation with primary antibody against GAPDH overnight at 4° C. Subsequent washes, incubation with secondary antibody and signal acquisition were performed as described above.
(§3) Table 5 assigns each compound a code indicating the ability for the degradation of IKZF1, IKZF3, CK1alpha and ZFP91: A, B, C, D, E or F. According to the code, A represents a no degradation observed at 30 μM, B represents trace degradation at 30 μM (below 20%), C represents weak degradation at 30 μM (below 50%), D represents degradation at 30 μM (>90%), E represents degradation at 3 μM (>90%) and F represents degradation at 0.3 μM (>90%).
In general terms: A western blot detects proteins with antibodies after separation by electrophoresis.

The target in a further assay is T3, CK1alpha (Homo sapiens, UniProt P48729).
T3 construct: MM1S cells were purchased from ATCC (cat. Number CRL-2974); endogenous in cells; host or cells: MM1S (ATCC CRL-2974)
As to the kind of experiment: Selectivity determination by Western Blot assay in MM1S cells: CK1alpha. It counts as cell-based. The arrangement: key: A represents a no degradation observed at 30 μM; B represents trace degradation at 30 μM (below 20%); C represents weak degradation at 30 μM (below 50%); D represents degradation at 30 μM (>90%); E represents degradation at 3 μM (>90%); F represents degradation at 0.3 μM (>90%). The conditions noted are these: MM1S cells, 0.3, 3 and 30 μM, 6 hours. On the procedure: as §1, §2, §3

The target of a further assay is GSPT1 (Homo sapiens, UniProt P15170+Q96SW2). As to the kind of experiment: Selectivity determination by Western Blot assay in MM1S cells: GSPT1. It counts as cell-based. The arrangement: MM1S cells were purchased from ATCC (cat. Number CRL-2974); endogenous in cells; host or cells: MM1S (ATCC CRL-2974). The conditions noted are these: MM1S cells, 0.3, 3 and 30 μM, 6 hours. On the procedure:
[Worded in the source for another target; this target is reported under the same test.] as §1, §2, §3

GSPT1, sequence (P15170 whole entry): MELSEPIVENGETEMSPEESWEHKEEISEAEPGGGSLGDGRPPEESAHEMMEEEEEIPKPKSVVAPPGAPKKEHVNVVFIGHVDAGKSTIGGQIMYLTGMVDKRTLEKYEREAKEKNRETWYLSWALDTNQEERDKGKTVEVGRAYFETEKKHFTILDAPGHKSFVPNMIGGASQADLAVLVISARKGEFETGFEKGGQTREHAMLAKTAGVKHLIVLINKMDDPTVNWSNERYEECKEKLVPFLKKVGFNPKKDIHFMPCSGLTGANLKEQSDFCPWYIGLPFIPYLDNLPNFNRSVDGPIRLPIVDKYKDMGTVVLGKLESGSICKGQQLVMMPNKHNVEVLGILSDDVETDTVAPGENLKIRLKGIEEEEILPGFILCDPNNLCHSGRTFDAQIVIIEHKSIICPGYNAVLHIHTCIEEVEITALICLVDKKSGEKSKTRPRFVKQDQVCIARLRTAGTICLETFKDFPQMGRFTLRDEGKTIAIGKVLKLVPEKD
GSPT1, sequence (Q96SW2 whole entry): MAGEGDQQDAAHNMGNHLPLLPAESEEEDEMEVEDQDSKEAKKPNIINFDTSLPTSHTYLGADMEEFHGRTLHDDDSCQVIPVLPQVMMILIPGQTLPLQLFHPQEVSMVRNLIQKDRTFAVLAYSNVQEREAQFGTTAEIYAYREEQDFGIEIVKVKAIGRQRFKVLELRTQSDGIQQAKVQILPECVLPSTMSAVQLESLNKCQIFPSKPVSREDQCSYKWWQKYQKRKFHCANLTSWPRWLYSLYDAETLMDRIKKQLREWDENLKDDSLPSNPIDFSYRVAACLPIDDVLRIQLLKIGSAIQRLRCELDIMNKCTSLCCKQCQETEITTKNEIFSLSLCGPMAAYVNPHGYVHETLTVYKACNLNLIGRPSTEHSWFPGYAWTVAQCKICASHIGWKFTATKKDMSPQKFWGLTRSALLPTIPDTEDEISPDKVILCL
GSPT1, sequence (Q16531 2-1140 partner limits assumed): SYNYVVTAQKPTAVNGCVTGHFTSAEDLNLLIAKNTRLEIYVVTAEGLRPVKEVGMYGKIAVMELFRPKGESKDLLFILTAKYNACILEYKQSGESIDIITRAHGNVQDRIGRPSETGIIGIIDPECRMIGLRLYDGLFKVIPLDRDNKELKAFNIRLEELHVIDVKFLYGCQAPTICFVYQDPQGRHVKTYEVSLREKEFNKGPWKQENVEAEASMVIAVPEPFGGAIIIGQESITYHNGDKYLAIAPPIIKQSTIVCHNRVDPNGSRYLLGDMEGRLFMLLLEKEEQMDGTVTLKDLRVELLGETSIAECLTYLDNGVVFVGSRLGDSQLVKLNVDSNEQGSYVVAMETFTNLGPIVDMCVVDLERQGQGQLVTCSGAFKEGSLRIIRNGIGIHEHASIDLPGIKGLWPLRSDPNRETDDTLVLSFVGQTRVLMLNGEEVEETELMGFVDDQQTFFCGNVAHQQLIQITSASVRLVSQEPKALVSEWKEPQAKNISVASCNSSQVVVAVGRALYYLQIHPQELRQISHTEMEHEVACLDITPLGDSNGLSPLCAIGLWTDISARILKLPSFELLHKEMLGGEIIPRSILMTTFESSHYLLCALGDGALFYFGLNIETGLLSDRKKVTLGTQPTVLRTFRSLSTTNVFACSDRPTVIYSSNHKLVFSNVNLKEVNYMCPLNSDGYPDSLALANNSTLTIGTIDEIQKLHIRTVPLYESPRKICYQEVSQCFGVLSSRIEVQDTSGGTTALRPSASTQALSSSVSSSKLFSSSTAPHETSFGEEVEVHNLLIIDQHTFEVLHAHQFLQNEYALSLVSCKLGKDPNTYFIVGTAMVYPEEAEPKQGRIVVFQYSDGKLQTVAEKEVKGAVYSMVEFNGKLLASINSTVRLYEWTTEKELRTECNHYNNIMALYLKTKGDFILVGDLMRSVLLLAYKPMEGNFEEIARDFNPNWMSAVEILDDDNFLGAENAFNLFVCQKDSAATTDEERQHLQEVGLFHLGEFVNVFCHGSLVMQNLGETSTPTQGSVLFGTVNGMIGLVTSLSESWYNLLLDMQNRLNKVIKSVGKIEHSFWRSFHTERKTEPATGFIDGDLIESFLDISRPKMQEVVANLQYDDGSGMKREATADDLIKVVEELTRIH
T2 sequence (Q96SW2 whole entry partner): as the sequence (Q96SW2 whole entry) above
T2 sequence (Q16531 2-1140 partner limits assumed): as the sequence (Q16531 2-1140 partner limits assumed) above
T2 sequence (Q9UKT9 whole entry): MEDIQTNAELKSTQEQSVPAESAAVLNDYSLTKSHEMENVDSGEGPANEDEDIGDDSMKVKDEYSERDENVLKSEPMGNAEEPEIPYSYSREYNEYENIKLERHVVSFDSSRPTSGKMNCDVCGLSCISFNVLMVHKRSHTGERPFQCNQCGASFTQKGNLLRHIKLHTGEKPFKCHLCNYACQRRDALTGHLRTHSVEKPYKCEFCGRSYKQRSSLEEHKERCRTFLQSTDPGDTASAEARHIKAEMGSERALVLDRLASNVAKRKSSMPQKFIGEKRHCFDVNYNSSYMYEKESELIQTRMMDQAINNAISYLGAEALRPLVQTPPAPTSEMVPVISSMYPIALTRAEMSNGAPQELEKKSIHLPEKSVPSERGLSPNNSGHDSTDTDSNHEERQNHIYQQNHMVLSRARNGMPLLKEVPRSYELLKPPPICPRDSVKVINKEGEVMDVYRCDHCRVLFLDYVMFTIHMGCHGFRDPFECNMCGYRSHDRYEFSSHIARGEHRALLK
T1 sequence (Q96SW2 whole entry): as the sequence (Q96SW2 whole entry) above
T3 sequence (Q96SW2 whole entry partner): as the sequence (Q96SW2 whole entry) above
T3 sequence (Q16531 2-1140 partner limits assumed): as the sequence (Q16531 2-1140 partner limits assumed) above
T3 sequence (P48729 whole entry): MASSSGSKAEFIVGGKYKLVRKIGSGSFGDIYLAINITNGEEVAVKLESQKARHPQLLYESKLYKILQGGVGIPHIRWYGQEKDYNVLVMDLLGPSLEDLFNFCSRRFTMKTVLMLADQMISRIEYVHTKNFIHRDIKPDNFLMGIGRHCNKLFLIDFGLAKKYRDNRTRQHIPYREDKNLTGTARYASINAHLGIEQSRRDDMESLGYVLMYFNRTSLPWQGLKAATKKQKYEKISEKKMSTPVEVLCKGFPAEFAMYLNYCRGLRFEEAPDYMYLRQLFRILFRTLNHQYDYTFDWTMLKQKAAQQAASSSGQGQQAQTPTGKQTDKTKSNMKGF

As a reminder, the IC50 is the concentration that gives 50% inhibition. On to `Cc1c(Cl)cc(NC(=O)NCc2ccc3c(c2)C(=O)N(C2CCC(=O)NC2=O)C3)cc1CC1COCOC1` (stereo not shown) [Compound 132], for which the IC50 in assay [1] was determined as 381 nM. Also, the IKZF3 degradation code entry on IKZF3 is recorded as “A”. Also, at CK1alpha, the CK1alpha degradation code result was “C (C represents weak degradation at 30 μM (below 50%))”. At GSPT1, the GSPT1 degradation code entry is “F (F represents degradation at 0.3 μM (>90%))”.

Turning to `O=C1CCC(N2Cc3ccc(CNC(=O)Nc4cccc(CN5CCOCC5)c4)cc3C2=O)C(=O)N1` (stereo not shown) [Compound 105], the concentration for half-maximal inhibition (IC50) in assay [1] turned out to be 295 nM. For the same compound, the IKZF3 degradation code entry at IKZF3 is “A”. On CK1alpha, the CK1alpha degradation code result is given as “A”. Further, at GSPT1, the GSPT1 degradation code result is “E (E represents degradation at 3 μM (>90%))”.

Consider `Cc1c(Cl)cc(NC(=O)NCc2ccc3c(c2)C(=O)N(C2CCC(=O)NC2=O)C3)cc1CN1CCOCC1` (stereo not shown) [Compound 82], for which the IC50 in assay [1] came out at 372 nM. The IKZF3 degradation code entry at IKZF3 is “A”. Also, the CK1alpha degradation code result on CK1alpha is on record as “A”. Moreover, at GSPT1, the GSPT1 degradation code result was “F (F represents degradation at 0.3 μM (>90%))”.

`Cc1ccc(NC(=O)NCc2ccc3c(c2)C(=O)N(C2CCC(=O)NC2=O)C3)cc1Cl` (stereo not shown) [Compound 8]: the IC50 in assay [1] is 468 nM. On IKZF3, the IKZF3 degradation code result was “B (B represents trace degradation at 30 μM (below 20%))”. Besides, the CK1alpha degradation code result on CK1alpha is recorded as “A”. In addition, at GSPT1, the GSPT1 degradation code result is recorded as “F (F represents degradation at 0.3 μM (>90%))”.

Turning to `Cc1cc(C)c(NC(=O)NCc2ccc3c(c2)C(=O)N(C2CCC(=O)NC2=O)C3)cc1Cl` (stereo not shown) [Compound 85], the IC50 in assay [1] is 214 nM. Further, the IKZF3 degradation code result at IKZF3 is “A”. In addition, on CK1alpha, the CK1alpha degradation code result is on record as “B (B represents trace degradation at 30 μM (below 20%))”. The GSPT1 degradation code entry at GSPT1 is on record as “E (E represents degradation at 3 μM (>90%))”.

Take `Cc1c(Cl)cc(NC(=O)NCc2ccc3c(c2)C(=O)N(C2CCC(=O)NC2=O)C3)cc1CN(C)C` (stereo not shown) [Compound 75]: the half-maximal inhibitory concentration (IC50) in assay [1] was 284 nM. Moreover, the IKZF3 degradation code result at IKZF3 is reported as “A”. Moreover, the CK1alpha degradation code result at CK1alpha is “A”. Also, the GSPT1 degradation code entry on GSPT1 is reported as “E (E represents degradation at 3 μM (>90%))”.

Turning to `Cc1ccc(NC(=O)NCc2ccc3c(c2)C(=O)N(C2CCC(=O)NC2=O)C3)c(Cl)c1Cl` (stereo not shown) [Compound 87], in assay [1], the 50% inhibitory concentration (IC50) was 278 nM. Also, the IKZF3 degradation code result at IKZF3 is recorded as “A”. Besides, the CK1alpha degradation code entry at CK1alpha was “A”. For the same compound, at GSPT1, the GSPT1 degradation code result is “E (E represents degradation at 3 μM (>90%))”.
